Laboratory results from PMC7468670, “Biophysical Insight into the Interaction of Human Lysozyme with Anticancer Drug Anastrozole: A Multitechnique Approach” (The Scientific World Journal, 2020).

Target: T1, Human lysozyme (HL) (Homo sapiens, UniProt P61626)
T1 construct: gene LYZ; commercial human lysozyme (Sigma-Aldrich), dialysed; single polypeptide, no subunits; 1REX used for docking only
T1 sequence (P61626 19-148): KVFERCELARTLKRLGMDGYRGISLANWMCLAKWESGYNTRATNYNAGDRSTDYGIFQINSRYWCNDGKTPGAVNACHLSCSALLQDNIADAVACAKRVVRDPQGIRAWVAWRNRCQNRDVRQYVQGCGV
Assay: intrinsic fluorescence quenching, modified Stern-Volmer
Type: binding
Conditions: 20 mM sodium phosphate pH 7.4, 310 K, 5 uM HL, excitation 280 nm; n = 1.00; double-log
Source text: intrinsic fluorescence quenching, modified Stern-Volmer on Human lysozyme (HL)

Kb: 9660 M⁻¹
SMILES: CC(C)(C#N)c1cc(Cn2cncn2)cc(C(C)(C)C#N)c1 [anastrozole]
